Structures can show the parent of a compound that is named as a salt.
Assays:
fibroblast cells (3T6) = conditions: for LD50: cell numbers after 24 hrs exposure, lactate dehydrogenase assay kit, mean ± SE, number of replications in parentheses; for RxI: therapeutic index, RxI=LD50/EC50
Procedure: Toxicity of the compounds described herein was assessed in the cell based assay used to assess EC50. Toxicity was measured by cell numbers after 24 hrs exposure to the compound using a lactate dehydrogenase assay kit TOX-7 (Sigma Biosciences) according to the manufacturer's instructions after lysis of remaining cells. Alternatively a kit from Promega UK (CytoTox 96) was used, again according to the manufacturer's instructions.
The therapeutic index (RxI) was calculated as follows: RxI=LD50/EC50.

[1] = target: T1, tau-tau binding: truncated tau (residues 297-390; dGA) on solid phase, full-length tau (T40) in aqueous phase (Homo sapiens, UniProt P10636); assay: In vitro assay for establishing B50 (tau-tau binding); conditions: concentration required to inhibit tau-tau binding by 50%; mean ± SE, number of replications in parentheses; NE = no effect when tested to 500 μM
T1 construct: truncated tau (residues 297-390; dGA); full-length tau (T40) was added in the aqueous phase
Source text: Briefly, a fragment of tau corresponding to the core repeat domain, which has been adsorbed to a solid phase substrate, is able to capture soluble full-length tau and bind tau with high affinity. This association confers stability against proteolytic digestion of the aggregated tau molecules.
The aqueous phase binding buffer contained 0.05% Tween-20 and 1% gelatine in phosphate-buffered saline (pH7.4).
The concentration of compound required to inhibit the tau-tau binding by 50% is referred to as the B50 value.

[2] = test system: fibroblast cells (3T6) expressing full-length tau (T40) and the 12 kD PHF-core tau fragment; assay: Cell-based assay for establishing EC50 (inhibition of generation of the 12 kD tau fragment)
Source text: In essence, fibroblast cells (3T6) express full-length tau (“T40”) under control of an inducible promotor, and low constitutive levels of the PHF-core tau fragment (12 kD fragment).
This is referred to as the EC50 value.

T1 sequence (P10636 614-707): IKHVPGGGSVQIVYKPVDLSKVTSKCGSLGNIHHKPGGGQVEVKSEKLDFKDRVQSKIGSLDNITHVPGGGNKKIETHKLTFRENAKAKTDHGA

SMILES: CN(C)c1ccc2nc3ccc(=[N+](C)C)cc-3[nH]c2c1 [N, 3,7-Bis(dimethylamino)phenazinium chloride]
- LD50 (fibroblast cells (3T6)): 136 ± 19.3 (4) μM
- IC50 [1]: 93.1 ± 17 µM

SMILES: CN(C)c1ccc2nc3ccc(N(C)C)cc3[s+]c2c1 [MTC, reference compound]
- EC50 [2]: 0.59 ± 0.04 µM

SMILES: CCN(CC)c1ccc2c(c1)Oc1cc(N(CC)CC)ccc1C2 [Compound H, 3,6-bis-diethylamino xanthene dihydrochloride]
- LD50 (fibroblast cells (3T6)): 113 ± 18 (11) μM
- RxI (fibroblast cells (3T6)): 2093
- IC50 [1]: > 500 µM
- EC50 [2]: 0.054 ± 0.01 µM

SMILES: [Cl-].c1c2c3c(c4[o+]c5c6c7c(cc5cc14)CCCN7CCC6)CCCN3CCC2 [Compound A, 2,3,6,7,12,13,16,17-Octahydro-1H,5H,11H,15H-diquinolizino[1,9-bc:1′,9′-hi]xanthylium chloride]
- LD50 (fibroblast cells (3T6)): 19 ± 2.7 (22) μM
- RxI (fibroblast cells (3T6)): 3115
- IC50 [1]: 33.8 ± 5.2 µM
- EC50 [2]: 0.0061 ± 0.0024 µM

SMILES: CC1(C)CCN2CCC(C)(C)c3c4c(cc1c32)C=c1cc2c3c(c1O4)C(C)(C)CC[N+]=3CCC2(C)C [Compound AE, 1,1,7,7,11,11,17,17-Octamethyl-2,3,6,7,12,13,16,17-octahydro-1H,5H,11H,15H-diquinolizino[1,9-bc;1′,9′-hi]xanthylium nitrate]
- LD50 (fibroblast cells (3T6)): 21 ± 8 (7) μM
- RxI (fibroblast cells (3T6)): 412
- IC50 [1]: 324 ± 87.1 µM
- EC50 [2]: 0.051 ± 0.012 µM

SMILES: FC(F)(F)C1=c2cc3c4c(c2Oc2c1cc1c5c2CCCN5CCC1)CCC[N+]=4CCC3 [C, 8-(trifluoromethyl)-2,3,5,6,11,12,14,15-octahydro-1H,4H,10H,13H-diquinolizino[9,9a,1-bc;9′,9a′1′-hi]xanthylium perchlorate]
- LD50 (fibroblast cells (3T6)): 5.99 ± 2.6 (4) μM
- RxI (fibroblast cells (3T6)): 13
- IC50 [1]: 461 ± 130 µM
- EC50 [2]: 0.47 µM

SMILES: Cl.Cl.c1cc2c(cc1N1CCOCC1)Oc1cc(N3CCOCC3)ccc1C2 [Compound AI, 3,6-Bis-morpholino xanthene dihydrochloride]
- LD50 (fibroblast cells (3T6)): 280 ± 121 (10) μM
- RxI (fibroblast cells (3T6)): 17
- IC50 [1]: > 500 µM
- EC50 [2]: 16 ± 11 µM

SMILES: Cc1cc(N(C)C)cc2[s+]c3cc(N(C)C)cc(C)c3nc12 [DMMTC, reference compound]
- LD50 (fibroblast cells (3T6)): 2.7 ± 1.2 (6) μM
- RxI (fibroblast cells (3T6)): 67
- IC50 [1]: 3.4 ± 0.2 µM
- EC50 [2]: 0.04 ± 0.004 µM

SMILES: CCN(CC)c1ccc2c(-c3ccc([N+](=O)[O-])cc3)c3ccc(N(CC)CC)cc3[o+]c2c1.O=[N+]([O-])[O-] [Compound AD, 3,6-Bis-diethylamino-9-(4-nitrophenyl)xanthylium nitrate]
- LD50 (fibroblast cells (3T6)): 19 ± 9 (5) μM
- RxI (fibroblast cells (3T6)): 54
- EC50 [2]: 0.35 ± 0.1 µM

SMILES: CN(C)c1ccc2cc3ccc(N(C)C)cc3[s+]c2c1.[Cl-].[Cl-].[Cl-].[Zn+2] [L, 3,6-bis(dimethylamino)thioxanthylium zinc trichloride]
- LD50 (fibroblast cells (3T6)): 22 ± 8.6 (3) μM
- RxI (fibroblast cells (3T6)): 73
- IC50 [1]: 21.7 ± 2.7 µM
- EC50 [2]: 0.3 µM

SMILES: O=[N+]([O-])[O-].c1cc2cc3ccc(N4CCCCC4)cc3[o+]c2cc1N1CCCCC1 [Compound AG, 3,6-Bis-piperidino-xanthylium nitrate]
- LD50 (fibroblast cells (3T6)): 13.8 ± 6.2 (8) μM
- RxI (fibroblast cells (3T6)): 12
- IC50 [1]: 257 ± 50.3 µM
- EC50 [2]: 1.12 ± 0.75 µM

SMILES: CCN(CC)c1ccc(-c2c3ccc(=[N+](CC)CC)cc-3oc3cc(N(CC)CC)ccc23)cc1 [Compound AC]
- LD50 (fibroblast cells (3T6)): 14.5 ± 8.4 (8) μM
- RxI (fibroblast cells (3T6)): 34
- IC50 [1]: 129 ± 11.9 µM
- EC50 [2]: 1.43 ± 0.14 µM

SMILES: O=[N+]([O-])[O-].c1cc2cc3ccc(N4CCOCC4)cc3[o+]c2cc1N1CCOCC1 [Compound AF, 3,6-Bis-morpholino-xanthylium nitrate]
- LD50 (fibroblast cells (3T6)): 144 ± 67 (10) μM
- RxI (fibroblast cells (3T6)): 7
- IC50 [1]: 187 ± 28.3 µM
- EC50 [2]: 22 ± 4.2 µM

SMILES: CCc1c2ccc(N(CC)CC)cc2[o+]c2cc(N(CC)CC)ccc12.[Cl-] [Compound J, 9-Ethyl-3,6-bis-diethylamino Xanthylium Chloride]
- LD50 (fibroblast cells (3T6)): 17 ± 3 (10) μM
- RxI (fibroblast cells (3T6)): 1545
- IC50 [1]: > 500 µM
- EC50 [2]: 0.011 ± 0.006 µM

SMILES: O=[N+]([O-])[O-].c1c2c3c(c4[o+]c5c6c7c(cc5cc14)CCCN7CCC6)CCCN3CCC2 [Compound B, 2,3,6,7,12,13,16,17-Octahydro-1H,5H,11H,15H-diquinolizino[1,9-bc:1′,9′-hi]xanthylium nitrate]
- LD50 (fibroblast cells (3T6)): 30.8 ± 4.6 (4) μM
- RxI (fibroblast cells (3T6)): 3802
- IC50 [1]: 254 ± 26.4 µM

SMILES: CC[N+](CC)=c1ccc2nc3ccc(N(C)C)cc3oc-2c1 [AN, 3-Diethylamino-7-dimethylaminooxazinium perchlorate]
- LD50 (fibroblast cells (3T6)): 167 ± 29 (6) μM
- RxI (fibroblast cells (3T6)): 309
- IC50 [1]: > 500 µM
- EC50 [2]: 0.54 ± 0.08 µM

SMILES: Cl.Cl.c1cc2c(cc1N1CCCCC1)Oc1cc(N3CCCCC3)ccc1C2 [Compound AK, 3,6-Bis-piperidino xanthene dihydrochloride]
- LD50 (fibroblast cells (3T6)): 44 ± 26 (8) μM
- RxI (fibroblast cells (3T6)): 69
- IC50 [1]: 284 ± 101 µM
- EC50 [2]: 0.64 ± 0.27 µM

SMILES: O=[N+]([O-])[O-].c1cc2cc3ccc(N4CCCC4)cc3[o+]c2cc1N1CCCC1 [Compound AH, 3,6-Bis-pyrrolidino-xanthylium nitrate]
- LD50 (fibroblast cells (3T6)): 121 ± 52 (12) μM
- RxI (fibroblast cells (3T6)): 465
- IC50 [1]: 129 ± 15.5 µM
- EC50 [2]: 0.26 ± 0.073 µM

SMILES: Cl.Cl.c1cc2c(cc1N1CCCC1)Oc1cc(N3CCCC3)ccc1C2 [Compound AJ, 3,6-Bis-pyrrolidino xanthene dihydrochloride]
- LD50 (fibroblast cells (3T6)): 125 ± 57 (10) μM
- RxI (fibroblast cells (3T6)): 334
- IC50 [1]: > 500 µM
- EC50 [2]: 0.37 ± 0.1 µM

SMILES: CCN(CC)c1ccc2cc3ccc(N(CC)CC)cc3[s+]c2c1.[I-] [K, 3,6-Bis(diethylamino)thioxanthylium Iodide]
- LD50 (fibroblast cells (3T6)): 21.2 ± 12 (3) μM
- RxI (fibroblast cells (3T6)): 91
- IC50 [1]: > 500 µM
- EC50 [2]: 0.23 ± 0.13 µM

SMILES: CCN(CC)c1ccc2nc3ccc(N(C)C)cc3nc2c1.Cl [AM, 3-Diethylamino-7-dimethylaminophenazinium chloride]
- LD50 (fibroblast cells (3T6)): 93 ± 19 (6) μM
- RxI (fibroblast cells (3T6)): 85
- IC50 [1]: 634 µM
- EC50 [2]: 1.1 ± 0.24 µM

SMILES: CN(C)c1ccc2nc3ccc(=[N+](C)C)cc-3oc2c1 [O, 3,7-bis(dimethylamino)oxazinium chloride]
- LD50 (fibroblast cells (3T6)): 115 ± 17 (9) μM
- RxI (fibroblast cells (3T6)): 29
- IC50 [1]: 190 ± 33.2 µM
- EC50 [2]: 3.9 ± 3.5 µM

SMILES: CCN(CC)c1cc2oc3cc(N(CC)CC)cc4oc5cc(=[N+](CC)CC)cc6oc(c1)c2c(c34)c65 [AL, 2,6,10-tris-diethylamino-4,8,12-trioxatrianguleum hexafluorophosphate]
- LD50 (fibroblast cells (3T6)): 8 ± 4 (6) μM
- RxI (fibroblast cells (3T6)): 62
- IC50 [1]: 8.5 ± 0.9 µM
- EC50 [2]: 0.13 ± 0.07 µM

Reference: US8658665B2, “3,6-disubstituted xanthylium salts and use thereof in treatment of tauopathies” (WisTa Laboratories Ltd., priority 2008, dated 2014)
